Tested on: subjects with anemia and Non-Dialysis-Dependent Chronic Kidney Disease (NDD-CKD)
Assay: Phase 3 open-label, active-controlled NDD-CKD Conversion/Correction Study (J01), Compound 1 vs darbepoetin alfa, 52 weeks
Type: in vivo, human
From the text: This example describes the first open-label, active-controlled Phase 3 study of Compound 1 (Vadadustat or VDT or MT-6548) for treatment of anemia in subjects with Non-Dialysis-Dependent Chronic Kidney Disease (NDD-CKD) for up to 52 weeks. Efficacy and safety of Compound 1 was compared with darbepoetin alfa (DA) for the treatment of anemia in subjects with NDD-CKD. A subset of the subjects were switching to treatment with Compound 1 from an ESA therapy. […] These findings support the use of vadadustat as a durable, effective therapy for anemia in patients with NDD-CKD.
The study population consisted of subjects 20 years of age with NDD-CKD, estimated glomerular filtration rate (eGFR)<60 mL/min/1.73 m^2, and hemoglobin (Hb) values greater than or equal to 8.0 g/dL and less than 11.0 g/dL (correction group) or greater than or equal to 9.0 g/dL and less than 12.5 g/dL (conversion group), who were currently treated with an erythropoiesis stimulating agent (ESA) for anemia.
Following randomization, patients were treated for a period of up to 52 weeks. Patients were then observed post treatment for a period of two (2) weeks (“follow up” period).
In order to be eligible for this study, patients were required to meet all of the following inclusion criteria: • Be at least 20 years of age, inclusive; • Have diagnosis of Chronic Kidney Disease with an estimated glomerular filtration rate (eGFR)<60 mL/minute/1.73 m^2 [eGFR (mL/min/1.73 m^2)=194×(serum creatinine)^−1.094×(age)^−0.287(females: ×0.739)] at screening; • Not have received dialysis within 8 weeks prior to the screening period nor expect to start dialysis during the treatment period; • ESA Treatment • Correction group: not receiving ESA for at least eight (8) weeks just before screening; • Conversion group: receiving the same formulation of ESA using the same administration route and the same dose interval (the dose interval should be the one described in the package insert for the ESA formulation) for at least 8 weeks just before screening using the dosages described below: Epoetin alfa and epoetin beta: ≥12,000 IU every 2 weeks Darbepoetin alfa: ≥120 μg every 2 weeks Epoetin beta pegol: ≥250 μg every 4 weeks • Baseline Hb: Correction group: ≥8.0 to <11.0 g/dL Conversion group: ≥9.0 to ≤12.0 g/dL • Have a difference of <1.5 g/dL in Hb for the latest two tests in the screening period; • Have serum ferritin values of ≥100 ng/mL or transferrin saturation of ≥20% during the screening period; and • Have folic acid and vitamin B12 values above standard minimum values during the screening period.
Subjects deemed ineligible for into the study included those who: • Have anemia due to a cause other than CKD; • Have active bleeding or blood loss during the eight (8) weeks just before screening; • Have received a red blood cell transfusion during the eight (8) weeks just before screening; • Have uncontrolled hypertension; • Have active ocular fundus disease or cannot undergo an ocular fundus examination; • Have been diagnosed with cardiovascular disease, malignancy, or hemisiderosis; • Have a history of adverse drug reactions or a drug allergy; and • Have previously received Compound 1.
• Average Hb level at weeks 20 and 24 of the treatment period.
• Hb level at each treatment visit; and • The proportion of patients within the target Hb range (11.0-13.0 g/dL).
Safety endpoints for this study were defined as follows: • Adverse events (AEs); • Adverse drug reactions; and
Other endpoints for this study were defined as follows: • Iron-related parameters: serum ferritin, transferrin saturation (TSAT), total iron-binding capacity (TIBC), hepcidin, serum iron, and monthly dose of iron by any route of administration (oral and intravenous); and • Red blood cell indices. […]

[1] = 52 weeks LOCF compared with baseline

With `O=C(O)CNC(=O)c1ncc(-c2cccc(Cl)c2)cc1O` [Compound 1, Vadadustat] as the molecule, how does the “Deaths due to AEs” value (52 weeks) read?
Its value is 0 (0.0) n (%).

And the “MCH, change” value [1]?
The value was “significantly increased”.

What about the “MCHC, change” value [1] of the same molecule?
Its value is “significantly increased”.

And the “MCV, change” value [1]?
Its value is “significantly increased”.

What about the “RDW, change” value [1] of the same molecule?
The value was “no significant differences”.

What about the “TIBC, change” value [1] of the same molecule?
Its value is “significant increase”.

What about the “TSAT, change” value [1] of the same molecule?
Its value is “no significant difference”.

What about the “hepcidin, change” value [1] of the same molecule?
The value was “significant decreases”.

What about the “serum ferritin, change” value [1] of the same molecule?
Its value is “significant decreases”.

And the “week at which mean Hb reached the target range (11.0-13.0 g/dL)” value (from here on “week … (11.0-13.0 g/dL)”) (ESA non-users)?
The value was 8 week.

And the “proportion of patients with Hb levels within the target range” value (ESA non-users, Week 52)?
The value was 71.4%.

What about the “proportion of patients with Hb levels within the target range” value (ESA non-users, baseline) of the same molecule?
Its value is 15.5%.

What about the “week … (11.0-13.0 g/dL)” value (ESA users) of the same molecule?
Its value is 8 week.

And the “proportion of patients with Hb levels within the target range” value (ESA users, Hb<11.0 g/dl subgroup, Week 52)?
The value was 78.3%.

And the “proportion of patients with Hb levels within the target range” value (ESA users, Hb<11.0 g/dl subgroup, baseline)?
The value was 4.7%.

What about the “proportion of patients with Hb levels within the target range” value (ESA users, Hb≥11.0 g/dl subgroup, Week 52) of the same molecule?
Its value is 80.0%.

What about the “proportion of patients with Hb levels within the target range” value (ESA users, Hb≥11.0 g/dl subgroup, baseline) of the same molecule?
The value was 91.9%.

What about the “proportion of patients with Hb levels within the target range” value (ESA users, Week 52) of the same molecule?
Its value is 79.2%.

What about the “proportion of patients with Hb levels within the target range” value (ESA users, baseline) of the same molecule?
The value was 45.0%.

What about the “Hb levels during the treatment period” value (ESA users, screening Hb ≥11.0 g/dl subgroup) of the same molecule?
The value was “maintained within the target range throughout the treatment period”.

What about the “time at which mean Hb reached the target range” value (ESA users, screening Hb<11.0 g/dl subgroup) of the same molecule?
Its value is 12 weeks.

And the “proportion of patients within the target Hb range” value (conversion group, week 24)?
The value was 66.7%.

What about the “average Hb at baseline” value (conversion patients) of the same molecule?
Its value is 10.68 g/dL.

And the “average Hb at week 24” value (conversion patients)?
Its value is 11.27 g/dL.

And the “average Hb at baseline” value (correction patients)?
Its value is 10.17 g/dL.

What about the “average Hb at week 24” value (correction patients) of the same molecule?
Its value is 11.85 g/dL.

What about the “proportion of patients within the target Hb range of 11.0-13.0 g/dL” value (correction patients, week 24) of the same molecule?
Its value is 69.7%.

What about the Adverse drug reaction (human, in vivo, 52 weeks) of the same molecule?
The Adverse drug reaction was 20 (13.2) n (%).

What about the “Cardiac failure (AE of special interest)” value (human, in vivo, 52 weeks) of the same molecule?
The value was 6 (4.0) n (%).

What about the “Cardiovascular event (AE of special interest)” value (human, in vivo, 52 weeks) of the same molecule?
The value was 3 (2.0) n (%).

And the Constipation (human, in vivo, 52 weeks)?
The Constipation was 14 (9.3) n (%).

What about the Diarrhea (human, in vivo, 52 weeks) of the same molecule?
The Diarrhea was 18 (11.9) n (%).

What about the “Discontinuation due to AEs” value (human, in vivo, 52 weeks) of the same molecule?
The value was 10 (6.6) n (%).

And the “Dose reduction or interruption of study drug due to AEs” value (human, in vivo, 52 weeks)?
The value was 11 (7.3) n (%).

And the “Hyperkalemia (AE of special interest)” value (human, in vivo, 52 weeks)?
The value was 1 (0.7) n (%).

And the “Malignancy (AE of special interest)” value (human, in vivo, 52 weeks)?
Its value is 2 (1.3) n (%).

What about the Nasopharyngitis (human, in vivo, 52 weeks) of the same molecule?
Its Nasopharyngitis is 37 (24.5) n (%).

And the “Pulmonary hypertension (AE of special interest)” value (human, in vivo, 52 weeks)?
The value was 0 (0.0) n (%).

What about the “Retinal disorder (AE of special interest)” value (human, in vivo, 52 weeks) of the same molecule?
Its value is 4 (2.6) n (%).

What about the “Serious AEs” value (human, in vivo, 52 weeks) of the same molecule?
Its value is 42 (27.8) n (%).

And the “Serious adverse drug reaction” value (human, in vivo, 52 weeks)?
Its value is 0 (0.0) n (%).

And the “Subjects with ≥ 1 AE” value (human, in vivo, 52 weeks)?
The value was 136 (90.1) n (%).

What about the constipation (human, in vivo, 52 weeks) of the same molecule?
Its constipation is 9.3%.

And the diarrhea (human, in vivo, 52 weeks)?
The diarrhea was 11.9%.

And the “incidence of adverse events (AEs), at least one AE” value (human, in vivo, 52 weeks)?
The value was 90.1%.

And the “incidence of serious adverse events (SAEs)” value (human, in vivo, 52 weeks)?
Its value is 27.8%.

And the nasopharyngitis (human, in vivo, 52 weeks)?
Its nasopharyngitis is 24.5%.

What about the “mean Hb level at week 52” value (overall population) of the same molecule?
Its value is 11.51 g/dL.

And the “week … (11.0-13.0 g/dL)” value (overall population)?
Its value is 8 week.

And the “LSMean of the average Hb at weeks 20 and 24” value (overall population, MMRM)?
The value was 11.66 g/dL.

And the “Difference (Compound 1-Darbepoetin alfa) in LSMean of the average Hb at weeks 20 and 24” value (overall population, noninferiority margin −0.75 g/dL)?
Its value is -0.26 g/dL.

Reference: US20230285374A1, “THERAPEUTIC METHODS USING VADADUSTAT” (Akebia Therapeutics, Inc., priority 2019, published 2023)
